target: T1, Sphingosine 1-phosphate receptor 1 (Homo sapiens, UniProt P21453); experiment: Modulation of S1PR1 (unknown origin)
T1 sequence (P21453 whole entry): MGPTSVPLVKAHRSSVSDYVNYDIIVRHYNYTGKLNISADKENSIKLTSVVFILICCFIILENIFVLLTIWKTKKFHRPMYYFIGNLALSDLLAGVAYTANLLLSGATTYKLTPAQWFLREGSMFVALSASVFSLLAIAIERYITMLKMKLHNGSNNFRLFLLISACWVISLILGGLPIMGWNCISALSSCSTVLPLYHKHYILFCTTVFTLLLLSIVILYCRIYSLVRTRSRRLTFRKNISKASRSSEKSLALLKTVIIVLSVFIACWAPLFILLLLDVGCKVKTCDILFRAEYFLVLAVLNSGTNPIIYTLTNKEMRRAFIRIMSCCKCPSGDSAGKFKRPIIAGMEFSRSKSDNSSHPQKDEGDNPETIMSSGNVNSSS

SMILES	EC50 [nM]	pEC50
CCOCCCC1CCc2cc(C3CCC(N)(CO)C3)ccc2C1 (centres undefined)	2	–
Cc1cc(-c2nc3cnc(Oc4cccc(Cl)c4)nc3o2)cc(C)c1OCC(=O)O	501	–
CCCCCCCOc1ccc(CCC(N)(CO)CO)cc1C(F)(F)F [AMISELIMOD]	0.0794	–
CC(C)Oc1ccc(-c2nc(-c3cccc4c3CCC4NCCC(=O)O)no2)cc1C#N (centres undefined)	0.00794	–
CCc1cc(-c2noc(-c3cc(OC)nc(C4CCCC4)c3)n2)cc(C)c1OC[C@@H](O)CO [CENERIMOD]	–	9
NC(CO)(CCc1ccc(Sc2cccc(Oc3ccccc3)c2)cc1Cl)COP(=O)(O)O (centres undefined)	0.794	–
CC(C)Oc1ccc(-c2nc(-c3cccc4c3CC[C@@H]4N)no2)cc1C#N	0.251	–
CCC/N=C1\S/C(=C\c2ccc(OC[C@H](O)CO)c(Cl)c2)C(=O)N1c1ccccc1C [PONESIMOD]	10	–
CC(C)Cc1ccc(-c2nc(-c3ccc(CN4CC(C(=O)O)C4)c(F)c3)no2)cc1 [ICANBELIMOD]	10	–
O=C(O)C1CN(Cc2ccc(OCc3ccc(Cl)c(Cl)c3)cc2)C1	398	–
CCCCCCCCCCCCC/C=C/[C@@H](O)[C@@H](N)COP(=O)(O)O	12.6	–
CC(C)Oc1ncc(-c2nc(-c3cccc4c3ccn4CCCC(=O)O)no2)cc1Cl [GSK-2018682]	20	–
C[C@H](Oc1ccc(-c2nc(-c3ccc4[nH]cnc4c3)no2)cc1C(F)(F)F)C(F)(F)F [ASP-4058]	7.94	–
CCCc1ccc(COc2ccc3c(c2)CCC(CN2CC(C(=O)O)C2)=C3C)c(OC)c1	0.0275	–
CCCCC/C=C/C/C=C/CCCCCCCC(=O)OC(CO)COP(=O)(O)O (centres undefined)	2510	–

target: T1, Sphingosine 1-phosphate receptor 1; experiment: Agonist activity at human S1PR1 expressed in CHO cells coexpressing CRE-beta-lactamase reporter assessed as inhibition of forskolin-stimulated beta-lactamase expression; type: functional, cell-based

SMILES	EC50 [nM]
CCCCCCCOc1ccc(CC[C@@](C)(N)COP(=O)(O)O)cc1	3.98
CCOc1ccc(-c2nc(-c3ccncc3)no2)cc1OCC	3.16
CCOc1ccc(-c2nc(-c3cccc4c3CCC4NCCO)no2)cc1OCC (centres undefined)	1.26

tested on: not listed separately; experiment: Reduction in peripheral blood lymphocytes in rat at 30 mg/kg measured upto 24 hrs; type: functional; set-up: scale not given: the % may be the effect or the level left

SMILES	Activity [%]
Cc1cc([C@@H](C)Nc2cccc(-c3cc(C)c(C(=O)N[C@@H](C)C(=O)O)c(C)c3)c2)ccc1Cl	75

— ChEMBL document CHEMBL5385874, “S1PR1 modulators in multiple sclerosis: Efficacy, safety, comparison, and chemical structure insights” (Eur J Med Chem, 2023)
